Reference: patent publication US20100297023A1, “Lipid” (priority 2006, published 2010)

Assays:
siRNA = assay: Agarose gel retardation assay of siRNA with lipid; format: physicochemical; conditions: for optimal lipid:siRNA ratio to completely retard the siRNA: precast 0.8% agarose gel, anti-apoB siRNA
Description: Gel retardation assay. In order to define the optimal ratio between lipid:siRNA to achieve full complexation of the nucleic acid which is manifested by a complete retardation in an electrical field, different ratios of lipid:siRNA (0-3) were produced and aliquots run on precast 0.8% agarose gels (Invitrogen). For this purpose, 1 μg siRNA were pipetted into 0.5 mL eppendorf tubes complemented with distilled water to 10 μL. The appropriate amount of lipid from a stock in water (2 mg/mL) were added to generate lipid:siRNA ratios between 0 and 3. All samples were vortexed and the whole reaction mixture pipetted to the individual wells of 0.8% pre-cast agarose gels and run at 50V/10 mA for 20 mins (FIG. 2). […] Therefore, for all future in vivo experiments, a ratio of 3:1 (lipid:siRNA) was chosen.

mouse apoB gene = assay: Down-regulation of the apoB gene in vivo (liver, real time PCR); parameters: species or system Balb/C mice; conditions: tail vein, liver at 48 h
Description: Lipid-siRNA AB nanoparticles with CDAN and DODAG were prepared at final lipid:siRNA ratios of 2.5 and 3, respectively. These values correspond to the optimal ratios to completely retard the siRNA on a precast 0.8% agarose gel (Invitrogen). All lipid-siRNA AB nanoparticle complexes were made in water at a final concentration of 0.5 mg siRNA/mL in water.
Experimental The appropriate amounts of CDAN and DODAG from stock solutions in water (5 mg/mL and 2 mg/mL, respectively) were pipetted into a 25 mL falcon plastic tube. The appropriate amount of anti-apoB siRNA from a stock solution of 10 mg/mL was added slowly to the respective lipid solution while vortexing the falcon tube. The appropriate amount of a solution of trehalose (100%, w/v in water) was added and the sample vortexed heavily for 10 s. The samples were then sonicated in a water bath for 15 mins to generate homogenous emulsions. 15 mins prior to the injection of the samples into Balb/C mice, 1.5M NaCl was added so that each lipid-siRNA AB nanoparticle preparation contained a final concentration of 150 mM NaCl. 200 μL aliquots were injected via tail vein and the animals left for 48 h before sacrificing. The liver was extracted and immediately put into a solution of RNAlater (Ambion). The total RNA was extracted using RNAeasy columns (Qiagen), and quantified both by UV absorption (λ=260 nm) and by densiometry of the bands on a 2% agarose formaldehyde gel.
1 μg of the total RNA was reversed transcribed to generate cDNA in a total volume of 20 μL. After completion of the reaction, the total reaction volume was supplemented to 40 μL with water. From this solution, 1 μL was used to do real time PCR (Sybr green) using the forward primer 5′-[…] (SEQ ID NO: 26) and the reverse primer 5′-[…] (SEQ ID NO:27) on an Applied Biosystem 7700 machine. The data were analysed using the ABI prism software (FIG. 4).

CyPB mRNA in HeLa cells = assay: Down-regulation of the cyclophilin B gene in vitro (real time PCR); format: cell-based, human; conditions: lipid:siRNA ratios lower than 13:1 (w/w)
Description: Experimental 4 μg (3.74 μL) siRNA were complemented with 770 μL OptiMEM and 52 μg (26 μL) DODAG (2 mg/mL, water) added under vortexing. The DODAG-siRNA AB nanoparticles were allowed to stand for 5 mins at room temperature. 200 μL of the DODAG-siRNA AB nanoparticle solution were pipetted to two wells of a six well plate containing HeLa cells (250,000), and the cells incubated at 37° C. for 3 h under CO2 regime. The cells were then washed with warm PBS and incubated for another 48 h before lysing and extracting the total RNA using RNAeasy extraction columns (Qiagen). The same protocol was employed with CDAN. For DOGS, the protocol as recommended by the manufacturer was applied. The quality of the total RNA was verified on a 2% agarose formaldehyde gel, and the RNA quantified by UV (260 nm). 1 μg RNA of each sample was reverse transcribed to generate cDNA which was real time PCRed using standard protocols with Sybr green. The CyPB levels were standardized to β-actin levels for each sample (FIG. 3).

| optimal lipid:siRNA ratio to completely retard the siRNA (siRNA) | N/P ratio at which the movement of siRNA was entirely retarded (siRNA; agarose gel, assuming cationic charge of 1.5 per DODAG) | Compound | down-regulation of the apoB mRNA in vivo (mouse apoB gene; 5 mg siRNA/kg animal) | down-regulation of the apoB mRNA in vivo (mouse apoB gene; 15 mg siRNA/kg animal) | specific down-regulation of CyPB in vitro (CyPB mRNA in HeLa cells) |
| --- | --- | --- | --- | --- | --- |
| 2.5 | – | CC(C)CCC[C@@H](C)[C@H]1CC[C@H]2[C@@H]3CC=C4C[C@@H](OC(=O)NCCNCCCNCCN)CC[C@]4(C)[C@H]3CC[C@]12C [CDAN, N^1-cholesteryloxycarbonyl-3,7-diazanonane-1,9-diamine] | did not mediate down-regulation | did not mediate down-regulation | – |
| 3 | 1.8 | CCCCCCCCCCCCCCCCCCN(CCCCCCCCCCCCCCCCCC)C(=O)CNC(=O)CCNCCCNCCN [DODAG, N′,N′-dioctadecyl-N-4,8-diaza-10-aminodecanoylglycine amide] | > 60% | – | unsuccessful |
